Results taken from ChEMBL document CHEMBL2150877, “γ-Secretase modulators as potential disease modifying anti-Alzheimer's drugs” (J Med Chem, 2011).
pEC50, pIC50: −log10 of the molar value. One block for each compound: values may come before it.

Legend:
[1] = Inhibition of gamma secretase assessed as reduction in Abeta42 production at 3 uM
[2] = Drug level in mouse brain at 5 mg/kg, po after 2 hrs; assay type: ADME, organism-based; parameters: dose 5 mg/kg, route oral; conditions: read-out: Drug uptake
[3] = Inhibition of gamma secretase assessed as reduction in Abeta42 production
[4] = Ratio of drug level in brain to plasma in mouse at 5 mg/kg, po after 2 hrs; assay type: ADME, organism-based; parameters: dose 5 mg/kg, route oral; conditions: read-out: BPR
Mus musculus [5] = test: Antialzheimer activity in TASTPM transgenic mouse model assessed as increase in brain Abeta38 levels at 100 mg/kg measured after 3 to 15 hrs; assay type: functional
Mus musculus [6] = test: Antialzheimer activity in TASTPM transgenic mouse model assessed as reduction in brain Abeta42 levels at 100 mg/kg measured after 3 to 15 hrs; assay type: functional; parameters: scale not given: the % may be the effect or the level left
[7] = Drug level in mouse plasma after 6 hrs; assay type: ADME, cell-free
[8] = Drug level in mouse brain after 6 hrs; assay type: ADME, tissue-based; conditions: read-out: Drug uptake
[9] = Drug level in brain of rat at 10 mg/kg after 6 hrs; assay type: ADME, organism-based; parameters: dose 10 mg/kg; conditions: read-out: Drug uptake
[10] = Selectivity index, ratio of IC50 for gamma secretase-mediated Abeta42 production to IC50 for […] gamma secretase-mediated Abeta40 production
[11] = Inhibition of gamma secretase expressed in CHO cells assessed as reduction in Abeta40 and Abeta 42 production; assay type: cell-based
Mus musculus [12] = test: Antialzheimer activity in Tg2576 mouse assessed as reduction in Abeta42 production at 25 mg/kg, po after 18 hrs; assay type: functional; parameters: scale not given: the % may be the effect or the level left
[13] = Inhibition of gamma secretase expressed in CHO cells assessed as reduction in Abeta42 production; assay type: cell-based
Mus musculus [14] = test: Antialzheimer activity in po dosed YAC transgenic mouse model assessed as reduction in Abeta42 levels; assay type: functional
Mus musculus [15] = test: Antialzheimer activity in po dosed YAC transgenic mouse model assessed as brain compound concentration causing reduction in brain Abeta42 levels; assay type: functional, organism-based
Mus musculus [16] = test: Antialzheimer activity in po dosed YAC transgenic mouse model assessed as plasma compound concentration causing reduction in brain Abeta42 levels; assay type: functional, organism-based
Mus musculus [17] = test: Antialzheimer activity in YAC transgenic mouse model assessed as reduction in brain Abeta42 levels at 10 mg/kg, po measured after 7 hrs; assay type: functional; parameters: scale not given: the % may be the effect or the level left
Plasma = test: Plasma concentration in Tg2576 mouse at 50 mg/kg/day, po; assay type: ADME, organism-based; parameters: route oral; conditions: in vivo
Mus musculus [18] = test: Antialzheimer activity in Tg2576 mouse assessed as reduction in plaque load in brain cortex at 50 mg/kg/day, po (reference value: 2.8%); assay type: functional; parameters: scale not given: the % may be the effect or the level left
Mus musculus [19] = test: Antialzheimer activity in Tg2576 mouse assessed as reduction in plaque load in brain hippocampus at 50 mg/kg/day, po (reference value: 0.5%); assay type: functional; parameters: scale not given: the % may be the effect or the level left
[20] = Inhibition of gamma secretase in Tg2576 mouse mixed brain cultures assessed as reduction in Abeta40 production
[21] = Drug level in C57/BL/6 mouse brain at 50 mg/kg, po dosed once daily; assay type: ADME, organism-based; parameters: dose 50 mg/kg, route oral; conditions: read-out: Drug uptake
[22] = Inhibition of gamma secretase in Tg2576 mouse mixed brain cultures assessed as reduction in Abeta42 production
[23] = Clearance in iv dosed mouse; assay type: ADME, organism-based; conditions: in vivo
[24] = Oral bioavailability in po dosed mouse; assay type: ADME, organism-based; conditions: in vivo
[25] = Tmax in po dosed mouse; assay type: ADME, organism-based; conditions: in vivo
[26] = Plasma concentration in C57/BL/6 mouse at 50 mg/kg, po dosed once daily; assay type: ADME, organism-based; parameters: dose 50 mg/kg, route oral
[27] = Inhibition of gamma secretase in Tg2576 mouse mixed brain cultures assessed as increase in Abeta38 production
[28] = Half life in po dosed mouse; assay type: ADME, organism-based; conditions: in vivo
[29] = Ratio of drug level in brain to plasma in C57/BL/6 mouse at 50 mg/kg, po dosed once daily; assay type: ADME, organism-based; parameters: dose 50 mg/kg, route oral; conditions: read-out: BPR
[30] = Ratio of drug level in brain to plasma in rat; assay type: ADME, cell-free; conditions: read-out: BPR
Rattus norvegicus = species: Rattus norvegicus; test: Antialzheimer activity in non-transgenic rat assessed as reduction in brain Abeta42 levels; assay type: functional; parameters: scale not given: the % may be the effect or the level left
Brain = test: Drug level in rat brain brain; assay type: ADME, tissue-based; conditions: in vivo, read-out: Drug uptake
Mus musculus [31] = test: Brain penetration in mouse assessed as brain/plasma ratio at 100 or 300 mg/kg/day for 4 to 5 days; assay type: ADME, organism-based; conditions: in vivo
[32] = Drug level in brain of Tg2576 mouse expressing human APP Swedish mutant at 60 mg/kg/day after 17 weeks; assay type: ADME, organism-based; conditions: read-out: Drug uptake
Mus musculus [33] = test: Antialzheimer activity in transgenic Alzheimer disease mouse model assessed as increase in recognition index at 375 ppm dosed for 10 months by object recognition memory test (reference value: 48.9%); assay type: functional
Mus musculus [34] = test: Antialzheimer activity in transgenic hAPP mouse expressing Swedish and London mutations assessed as reduction in plaque number in brain cortex dosed for 6 months; assay type: functional; parameters: scale not given: the % may be the effect or the level left
[35] = Drug level in mouse brain dosed for 4 weeks; assay type: ADME, organism-based; conditions: read-out: Drug uptake
Mus musculus [36] = test: Antialzheimer activity in transgenic hAPP mouse expressing Swedish and London mutations assessed as reduction in plaque area in brain hippocampus dosed for 6 months; assay type: functional; parameters: scale not given: the % may be the effect or the level left
Mus musculus [37] = test: Antialzheimer activity in transgenic hAPP mouse expressing Swedish and London mutations assessed as reduction in plaque area in brain cortex dosed for 6 months; assay type: functional; parameters: scale not given: the % may be the effect or the level left
Mus musculus [38] = test: Antialzheimer activity in transgenic hAPP mouse expressing Swedish and London mutations assessed as reduction in plaque number in brain hippocampus dosed for 6 months; assay type: functional; parameters: scale not given: the % may be the effect or the level left
Mus musculus [39] = test: Antialzheimer activity in transgenic Alzheimer disease mouse model assessed as increase in recognition index at 125 ppm dosed for 10 months by object recognition memory test (reference value: 48.9%); assay type: functional
[40] = Drug level in mouse plasma dosed for 4 weeks; assay type: ADME, organism-based

SMILES: COc1cc(Nc2cc(C#N)cn(Cc3ccc(F)cc3)c2=O)ccc1-n1cnc(C)c1
- pIC50 [3]: 6.80
- concentration at 6 h [9]: 391 ng/g
- Ratio IC50 [10]: 126

SMILES: CC(C)=CCCC(C)(O)[C@H]1CC[C@]2(C)[C@@H]1[C@H](O)C[C@@H]1[C@@]3(C)CC[C@H](O[C@@H]4O[C@H](CO)[C@@H](O)[C@H](O)[C@H]4O[C@@H]4O[C@H](CO)[C@@H](O)[C@H](O)[C@H]4O)C(C)(C)[C@@H]3CC[C@]12C (stereo partly drawn)
- pIC50 [11]: 3.70
- Activity (Mus musculus [12]): 20%
- pIC50 [13]: 4.60

SMILES: CCc1cc(Nc2nc(-c3ccc(-n4cnc(C)c4)c(F)c3)cs2)c(C)cc1C
- concentration (Plasma): 4 µM
- Activity (Mus musculus [18]): 7.6%
- Activity (Mus musculus [19]): 1.9%
- pIC50 [20]: 7.05
- AUC [21]: 65000 ng·h/mL
- pIC50 [22]: 7.54
- clearance [23]: 3.33 mL/min/kg
- bioavailability [24]: 49%
- Tmax [25]: 3 h
- AUC [26]: 70000 ng·h/mL
- pEC50 [27]: 6.77
- half-life [28]: 2 h
- Kp [29]: 0.93

SMILES: C[Si](C)(C)CC[C@H](CCC(F)(F)F)N1CC[C@@H](CC(=O)O)C(F)(F)[C@H]1c1ccc(C(F)(F)F)cc1
- pIC50 [3]: 6.64
- Activity (Mus musculus [17]): 64%

SMILES: O=C(O)C1(c2ccc(-c3ccc(Cl)c(Cl)c3)c(F)c2)CC1
- permeability (Mus musculus [31]): 5%
- concentration at 2856 h [32]: 6.4 µM
- Activity (Mus musculus [33]): 64.1%
- Activity (Mus musculus [34]): 28%
- concentration at 672 h [35]: 20 µM
- Activity (Mus musculus [36]): 42%
- pIC50 [3]: 4.40
- Activity (Mus musculus [37]): 32%
- Activity (Mus musculus [38]): 34%
- Activity (Mus musculus [39]): 62.2%
- concentration at 672 h [40]: 580 µM

Continued, in another order:

- inhibition [1]: 73%
SMILES: CC(C)CC(C(=O)O)c1cc(Nc2cc(F)cc(F)c2)cc(-c2ccc(C(F)(F)F)cc2)c1 (stereo not drawn)

- concentration at 2 h [2]: 4.2 µM
- pIC50 [3]: 6.49
- Kp at 2 h [4]: 0.74
SMILES: CC(C)CC[C@H](c1ncc(C(F)(F)F)cn1)N1CC[C@@H](CC(=O)O)C[C@H]1c1ccc(C(F)(F)F)cc1

- concentration at 6 h [7]: 32.9 µM
- pIC50 [3]: 6.10
- concentration at 6 h [8]: 54.7 µM
SMILES: CC(C)CC[C@H](c1ccc(C(F)(F)F)nc1)N1CC[C@@H](CC(=O)O)C[C@H]1c1ccc(C(F)(F)F)cc1
- Activity (Mus musculus [5]): 30%
- Activity (Mus musculus [6]): 20%

- pIC50 [3]: 6.83
- concentration at 6 h [9]: 917 ng/g
- Ratio IC50 [10]: 135
SMILES: COc1cc(Nc2cc(C#N)cn([C@@H](C)c3ccc(F)cc3)c2=O)ccc1-n1cnc(C)c1

- pIC50 [3]: 6.22
- pEC50 (Mus musculus [15]): 6.00
- pEC50 (Mus musculus [16]): 5.43
SMILES: CC(C)(C)CC[C@H](CCC(F)(F)F)N1CCC(F)(F)[C@H](CC(=O)O)[C@H]1c1ccc(C(F)(F)F)cc1
- ED50 (Mus musculus [14]): 5 mg/kg
- Activity (Mus musculus [17]): 84%

- pIC50 [3]: 6.85
- Kp [30]: 0.11
- concentration (Brain): 10 µM
SMILES: CC(C)CC(C(=O)O)c1ccc(-c2ccc(C(F)(F)F)cc2)c(OCC2CC2)c1 (stereo not drawn)
- Activity (Rattus norvegicus): 20%
